From US10011599B2 (priority 2013, dated 2018)

Legend:
A375 cells = assay: cells; conditions: Homo sapiens, A-375, 72 h, read-out: A375 XTT IC50 uM
Procedure: The cell viability assay in A375 cells (A375 ICW IC50 in Table 2) is set up in a 96-well plate format using XTT. XTT is a yellow tetrazolium salt that is cleaved to an orange formazan dye by the mitochondria of metabolically active cells. The procedure allows for rapid determination in a microtitre plate, to give reproducible and sensitive results.
A375 cells are grown in DMEM media containing 10% FBS and 1 mM sodium pyruvate. Cells are trypsinized and seeded at 1000 cells/well. After allowing the cells to adhere overnight, compound is added to the wells at the following final concentrations: 10, 3, 1, 0.3, 0.1, 0.03, 0.01, 0.001, and 0.0001 μM. The assay is set up in triplicates for each concentration. DMSO concentrations are kept at 0.5% /well. Three days after compound addition, the XTT assay is performed. Wells are washed once with PBS. 100 μL of DMEM media without phenol red or FBS is added to each well. […] 50 μL of the working solution of XTT is added to each well. […] The absorbance from wells with media and XTT alone, but without cells is considered the blank and subtracted from readings from all wells.
Percentage viability is calculated considering the blank subtracted value from wells treated with DMSO alone as 100% viable. IC50 values are calculated using Graphpad Prism, using non-linear regression curve fit for sigmoidal dose response (variable slope).

[1] = molecular target: recombinant human activated BRAF (V599E) kinase (Homo sapiens (Human), UniProt P15056, V600E); assay: biochemical
[2] = tested on: phospho-ERK1/2 in A375 cells; assay: cells; conditions: Homo sapiens, A-375, 3 h, read-out: A375 ICW IC50
Procedure: Human melanoma A375 cells were seeded at 50,000 cells per well in 100 μl growth medium in Costar 96 well black clear bottom plates and placed at 37° C./5% CO2 over night. Test compounds were diluted in DMSO to generate a concentration curve. A 5 mM stock was used for the highest concentration at 500 times; to yield a final concentration of 10 μM with 3-fold dilutions down to 0.0001 μM. 1 μl of diluted compound was added to 500 μl cell culture media and mixed well. Media was removed from cells and 200 μl of media containing compound was added. Cells were treated for 3 hrs with compound at 37° C., 5% CO2.
After the compound incubation, cells were washed once with PBS (Mg^++,Ca^++) and fixed in 4% paraformaldehyde/PBS for 1 hr at room temperature. Following fixation, cells were washed three times with PBS/0.1% TritonX-100(PBST), and then blocked with 5% skimmed milk/PBST, for 1-2 hr. 50 μL per well primary antibody was added (rabbit-anti-phospho-ERK1/2) at 1:500 in 5% skimmed milk/PBST and incubated overnight at 4° C. Cells were washed four times with 100 μl DELFIA wash buffer and 50 μL per well secondary antibody was added (DELFIA-EU-N1-labeled anti-rabbit antibody) at 1:3000 in DELFIA assay buffer and incubated for 2 hr at room temperature in the dark (covered). Cells were washed 4× with 100 μl DELFIA wash buffer. 50 μL per well Wallac-DELFIA enhancement solution was added. […]

[3] = molecular target: activated MAP kinase 2/ERK2 (Homo sapiens (Human), UniProt P28482); assay: biochemical
activated MAP kinase 2/ERK2, sequence (P28482 whole entry, looked up): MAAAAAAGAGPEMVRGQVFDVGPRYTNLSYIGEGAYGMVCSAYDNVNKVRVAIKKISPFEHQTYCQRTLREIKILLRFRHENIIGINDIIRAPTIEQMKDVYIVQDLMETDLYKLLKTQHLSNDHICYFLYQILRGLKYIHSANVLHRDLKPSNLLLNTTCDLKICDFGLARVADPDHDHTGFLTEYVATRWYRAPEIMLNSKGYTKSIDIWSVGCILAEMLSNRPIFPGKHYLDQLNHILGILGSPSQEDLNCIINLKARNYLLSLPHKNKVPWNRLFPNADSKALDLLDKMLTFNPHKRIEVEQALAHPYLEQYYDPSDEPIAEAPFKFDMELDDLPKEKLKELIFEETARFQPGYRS

recombinant human activated BRAF (V599E) kinase, sequence (P15056 417-766 V600E limits assumed): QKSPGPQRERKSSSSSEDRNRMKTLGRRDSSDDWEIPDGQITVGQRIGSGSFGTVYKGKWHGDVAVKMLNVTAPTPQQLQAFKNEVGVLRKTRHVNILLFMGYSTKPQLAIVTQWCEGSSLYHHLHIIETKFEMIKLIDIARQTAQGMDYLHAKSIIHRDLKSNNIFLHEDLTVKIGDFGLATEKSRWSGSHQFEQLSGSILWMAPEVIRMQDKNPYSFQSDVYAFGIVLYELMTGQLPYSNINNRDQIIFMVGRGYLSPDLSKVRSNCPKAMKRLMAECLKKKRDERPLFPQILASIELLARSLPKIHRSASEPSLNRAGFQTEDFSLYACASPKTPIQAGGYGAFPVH

SMILES: Cc1nc2cnc3cc(F)c(-c4ccc(Oc5ncccn5)cc4Cl)cc3c2n1[C@H]1CCN(C(=O)CO)C[C@@H]1F [Example 1A, 1-((3S,4S)-4-(8-(2-chloro-4-(pyrimidin-2-yloxy)phenyl)-7-fluoro-2-methyl-1H-imidazo[4,5-c]quinolin-1-yl)-3-fluoropiperidin-1-yl)-2-hydroxyethanone]
- IC50 (A375 cells): 0.003 µM
- inhibition at 10 µM [1]: 0%
- IC50 [2]: 3.9 nM
- inhibition at 10 µM [3]: 55%
